≈ marks a conversion by molar mass, not a printed value. Like-named read-outs stand apart in the source and are kept apart here.
How the values were obtained:
[1] = system: methicillin-resistant S. aureus (MRSA); assay: MIC by broth microdilution, MRSA strains; assay type: cell-based; conditions: Staphylococcus aureus
Method: (§1) All of the bacterial strains used in this study were obtained from the Collection Centre of Pathogen Microorganism of Chinese Academy of Medical Sciences (CAMS-CCPM-A) in China. All of the isolates were stored at −80 °C and streaked on tryptic soy agar (TSA) plates to obtain overnight cultures. The MICs of the test compounds were determined by the broth microdilution method in accordance with the Clinical and Laboratory Standards Institute (CLSI) guidelines.[20] Cation-adjusted Mueller-Hinton broth (CAMHB) was used as the growth medium for MIC assays. Briefly, 100 μL of serially diluted compounds (starting concentrations were 64 μg/mL) in CAMH broth were added to the wells of 96-well microtiter plates. Then, 10 µL of 5 × 10^6 CFU/mL bacterial culture was added to each well. […] The MIC was defined as the lowest concentration of a compound that inhibited visual growth of the bacteria. Vancomycin was set as the positive control for this assay.

S. aureus GyrB = biological target: T1, S. aureus GyrB (Staphylococcus aureus, UniProt P0A0K8); assay: S. aureus GyrB (Gyrase ATPase) inhibition assay, ADP-Glo; assay type: biochemical
T1 construct: purchased Inspiralis Ltd., Norwich, UK
Method: The IC50 values for S. aureus GyrB were determined according to our previously reported protocol.[16] For this assay, the reaction mixture (10 μL) consisted of 5 nM S. aureus Gyrase (Inspiralis Ltd., Norwich, UK), assay buffer [40 mM HEPES-KOH (pH 7.6), 10 mM magnesium acetate, 10 mM dithiothreitol, 50 g/L BSA, and 500 mM potassium glutamate], the test compound (0.01–100 μM), 1% DMSO, 10 nM linear pBR322 DNA, and […]. The target compound was dissolved in DMSO (10 mM). A series of dilutions (0.1–1000 μM) were prepared from the stock solution with the assay buffer and DMSO. The dilutions (1 μL) were respectively added to the PCR tubes along with the buffer (7 μL), the linear pBR322 DNA (0.5 μL), S. aureus Gyrase (0.5 μL), and ATP (1 μL). The PCR tubes were sealed and incubated at 37 °C for 30 min. The ADP-Glo reagent (40 μL) was added to stop the reaction and use up the remaining ATP.
The detection reagent (50 μL) was then added and mixed. After 5 min, the mixture in each PCR tube was put in the well of a 96-well plate and its luminescence was measured by the BioTek Synergy 2 microplate reader. The activity values (%) of S. aureus Gyrase treated by the test compound at different concentrations were determined based on the luminescence. GraphPad Prism version 5 software (GraphPad Software Inc., La Jolla, CA) was used to calculate the IC50 values.

[2] = system: methicillin-sensitive S. aureus (MSSA); assay: MIC by broth microdilution, MSSA isolates; assay type: cell-based; conditions: Staphylococcus aureus
Method: as §1

[3] = system: vancomycin intermediate resistant S. aureus (VISA); assay: MIC by broth microdilution, VISA strains; assay type: cell-based; conditions: Staphylococcus aureus, read-out: MIC
Method: as §1

MRSA/VISA strains = assay: MIC by broth microdilution, MRSA and VISA panel; assay type: cell-based, S. aureus; conditions: Staphylococcus aureus
Method: as §1

[4] = Cytotoxicity, SRB assay, HUVEC; assay type: cell-based, human; conditions: human, HUVEC cells, 72-h treatment (footnote), read-out: In vitro cytotoxicity CC50 (μM, mean ± SD)
Method: (§2) Cytotoxicity in terms of CC50 was determined by the SRB assay according to the protocol described in our previous publication.[16] Briefly, human HUVECs or HepG2 cells were seeded in the wells of 96-well plates at a concentration of 1 × 10^5 cells per well and incubated at 37 °C for 24 h. […] The cells were fixed with 10% trichloroacetic acid (w/v) at 4 °C for 1 h, washed five times with distilled water, and stained with 0.4% SRB solution at room temperature for another 20 min. The cells were then washed five times with 1% acetic acid and air-dried. The protein-bound dye was dissolved in 10 mM Tris-base solution and shaken for 5 min. The optical density (OD) was measured at 540 nm using a microplate reader to estimate the cell viability (%). With the viability values (%) of the cells treated by the compound at different concentrations as input, the CC50 value was determined by the non-linear regression with normalised dose-response fit implemented in GraphPad Prism version 5 software (GraphPad Software Inc., La Jolla, CA). The experiment was performed in duplicate, and paclitaxel was used as the positive drug for this assay.

HUVECs = assay: Cytotoxicity, SRB assay, HUVEC; assay type: cell-based, human; conditions: 72-h treatment (footnote), read-out: In vitro cytotoxicity CC50 (μM, mean ± SD)
Method: as §2

T1 sequence (P0A0K8 whole entry): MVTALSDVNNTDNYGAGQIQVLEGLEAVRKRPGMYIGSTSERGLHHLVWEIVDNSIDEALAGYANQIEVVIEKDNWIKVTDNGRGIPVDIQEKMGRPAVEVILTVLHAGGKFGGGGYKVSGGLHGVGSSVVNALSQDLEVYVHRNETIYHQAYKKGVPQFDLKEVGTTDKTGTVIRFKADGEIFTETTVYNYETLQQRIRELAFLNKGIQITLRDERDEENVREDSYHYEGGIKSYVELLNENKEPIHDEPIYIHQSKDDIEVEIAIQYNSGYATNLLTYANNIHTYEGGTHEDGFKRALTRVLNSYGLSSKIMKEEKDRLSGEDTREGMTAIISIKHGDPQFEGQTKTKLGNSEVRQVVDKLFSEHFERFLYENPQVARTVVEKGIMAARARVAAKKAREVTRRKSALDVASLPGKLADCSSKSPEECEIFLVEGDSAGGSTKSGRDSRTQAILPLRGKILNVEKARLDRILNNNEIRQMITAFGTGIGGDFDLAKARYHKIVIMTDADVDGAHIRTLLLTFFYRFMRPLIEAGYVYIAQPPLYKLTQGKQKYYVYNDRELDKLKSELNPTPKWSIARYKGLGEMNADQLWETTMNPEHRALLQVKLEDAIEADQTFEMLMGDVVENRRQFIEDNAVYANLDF
T1 sequence (P20831 whole entry, further chain): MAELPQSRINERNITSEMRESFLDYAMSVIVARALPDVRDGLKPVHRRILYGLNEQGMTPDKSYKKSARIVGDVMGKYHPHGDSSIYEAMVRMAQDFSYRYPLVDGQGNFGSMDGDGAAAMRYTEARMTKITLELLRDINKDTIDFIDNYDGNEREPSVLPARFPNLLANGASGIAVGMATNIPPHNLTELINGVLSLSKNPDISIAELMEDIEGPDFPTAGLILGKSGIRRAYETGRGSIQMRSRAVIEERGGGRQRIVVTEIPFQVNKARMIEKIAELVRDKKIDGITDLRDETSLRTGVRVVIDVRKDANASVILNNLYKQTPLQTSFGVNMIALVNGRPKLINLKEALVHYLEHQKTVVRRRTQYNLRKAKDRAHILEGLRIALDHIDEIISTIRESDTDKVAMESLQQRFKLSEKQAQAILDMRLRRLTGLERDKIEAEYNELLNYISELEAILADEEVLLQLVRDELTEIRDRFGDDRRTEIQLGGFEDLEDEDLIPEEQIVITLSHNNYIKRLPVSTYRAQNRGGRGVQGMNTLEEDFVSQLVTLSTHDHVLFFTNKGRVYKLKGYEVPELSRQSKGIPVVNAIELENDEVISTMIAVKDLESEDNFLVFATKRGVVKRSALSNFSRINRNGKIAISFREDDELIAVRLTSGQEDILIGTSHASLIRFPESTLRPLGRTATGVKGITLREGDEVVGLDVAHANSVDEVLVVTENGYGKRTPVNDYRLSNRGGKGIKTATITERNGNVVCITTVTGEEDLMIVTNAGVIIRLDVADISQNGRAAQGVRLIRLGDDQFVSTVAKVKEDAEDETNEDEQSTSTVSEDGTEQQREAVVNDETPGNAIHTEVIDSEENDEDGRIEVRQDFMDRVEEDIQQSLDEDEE

For `CCCCCc1nc2ccccc2c(=O)n1NC(=O)c1c(O)c2ccccc2n(CC)c1=O` [f1, N-(4-oxo-2-pentylquinazolin-3(4H)-yl)-1-ethyl-4-hydroxy-2-oxo-1,2-dihydroquinoline-3-carboxamide], the MIC ([1]; ATCC 33591 / MRSA, MRSA ATCC 33591, read-out: MIC) was 4 µg/mL (≈ 8.96 µM), the MIC ([1]; ATCC 43300 / MRSA, MRSA ATCC 43300, read-out: MIC) was 4 µg/mL (≈ 8.96 µM) and the MIC ([1]; MRSA 18-2, read-out: MIC) was 8 µg/mL (≈ 17.9 µM). For the same compound, the MIC ([1]; span over MRSA strains, read-out: MICs against MRSA) was 4 to 8 µg/mL (≈ 8.96 to 17.9 µM), the IC50 (S. aureus GyrB; IC50 for GyrB (µM, mean ± SD), S. aureus Gyrase ATPase inhibition, average of duplicates) was 1.21 ± 0.13 µM and the inhibition at 10 µM (S. aureus GyrB; read-out: GyrB inhibition rate (%) at 10 μM) was 72%. It also gave an MIC ([2]; ATCC 29213 / BAA-1708 / BAA-976 / MSSA, ATCC 29213, 15, 18-3, BAA976, BAA1708, span over isolates, read-out: MIC over the five MSSA isolates) of 4 to 8 µg/mL (≈ 8.96 to 17.9 µM), an MIC ([2]; ATCC 29213 / MSSA, MSSA ATCC 29213, read-out: MIC) of 4 µg/mL (≈ 8.96 µM) and an MIC ([2]; BAA-976 / MSSA, MSSA BAA976, read-out: MIC) of 4 µg/mL (≈ 8.96 µM). The MIC ([2]; BAA-1708 / MSSA, MSSA BAA1708, read-out: MIC) was 4 µg/mL (≈ 8.96 µM), the MIC ([2]; MSSA, MSSA 15, read-out: MIC) was 8 µg/mL (≈ 17.9 µM) and the MIC ([2]; MSSA, MSSA 18-3, read-out: MIC) was 4 µg/mL (≈ 8.96 µM). The MIC ([3]; ATCC 700699 / VISA, VISA ATCC 700699) was 8 µg/mL (≈ 17.9 µM), the MIC ([3]; VISA, VISA HIP 5827) was 4 µg/mL (≈ 8.96 µM) and the MIC ([3]; VISA, VISA HIP 5836) was 16 µg/mL (≈ 35.8 µM). For the same compound, the MIC (MRSA/VISA strains; ATCC 33591 / ATCC 43300 / ATCC 700699 / MRSA / VISA, span over ATCC 33591, ATCC 43300, 18-2, ATCC 700699, HIP 5836, HIP 5827, read-out: MICs for MRSA and VISA strains) was 4 to 16 µg/mL, the MIC (MRSA/VISA strains; span over tested MRSA/VISA strains, read-out: MICs for MRSA/VISA strains converted to) was 8.97 to 35.9 µM and the CC50 at 72 h [4] was about 50 µM. The CC50 (HUVECs) was 51.5 ± 4.5 µM.

— article PMC9186351, “Discovery of N-quinazolinone-4-hydroxy-2-quinolone-3-carboxamides as DNA gyrase B-targeted antibacterial agents” (Journal of Enzyme Inhibition and Medicinal Chemistry, 2022)
